These results are taken from US20160251341A1, “SUBSTITUTED TRIAZOLE COMPOUNDS AS SERINE PROTEASE INHIBITORS” (Verseon Corporation, priority 2015, published 2016).

For one data set, the system named is malignant breast tumors. Conditions: treated mice, cited from earlier work.
A further data set has as its target T1, Human thrombin (Homo sapiens, UniProt P00734).
T1 construct: purchased Haematologic Technologies Inc
Description: Thrombin protease inhibition assay (chromogenic substrate S-2238). It counts as biochemical. To be noted: 3 nM human thrombin, 125 μM S-2238, 10 min pre-incubation, RT. How it is done: The thrombin activity reported herein (e.g., Table A) was obtained as follows. Human thrombin was obtained from Haematologic Technologies Inc. The chromogenic substrate S-2238 was obtained from DiaPharma. Thrombin was assayed in buffer containing 0.05 M Tris (pH 7.4), 0.015 M NaCl and 0.01% PEG-8000. The final concentration of enzyme used was 3 nM thrombin. The final concentration of substrate used was 125 μM S-2238 for thrombin. All assays were performed in 96-well microtiter plates at room temperature (RT). The enzyme and inhibitor were pre-incubated for 10 minutes then substrate was added and read at 405 nm in a SpectraMax Plus Spectrophotometer (Molecular Devices). Inhibitor IC50 values were determined by adding test compound as ten point, three-fold serial dilutions in buffer solution, as known in the art. The plate was read at 10 minutes after substrate addition. The IC50 was calculated by plotting the percent (%) inhibition against compound concentration and fitting the data to a constrained four parameter sigmoidal curve, as known in the art.

Molecules are shown by their SMILES. pIC50: −log10 of the molar value. Bounds are passed on as bounds.

As to `CCCCCCOC(=O)NC(=N)c1ccc(NCc2nc3cc(C(=O)N(CCC(=O)OCC)c4ccccn4)ccc3n2C)cc1` [dabigatran etexilate], in the data set on malignant breast tumors (at 4 weeks), the “reduction in tumor volume” value was 50% and the weight loss entry is on record as “no weight loss”. Further, the “reduced tumor cells in the blood and liver micrometastases” value with malignant breast tumors is given as 50-60%.
Take `O=C(c1ccoc1)n1nc(C2CCOCC2)nc1NCc1ccc(Cl)s1` [Entry 51, N-[(5-chlorothiophen-2-yl)methyl]-1-(furan-3-carbonyl)-3-(oxan-4-yl)-1H-1,2,4-triazol-5-amine]: at Human thrombin, the negative logarithm of the IC50 (pIC50) (as a rule, −log10 of the IC50, conventionally taken in molar units) is at least 7.00.
Still for that read-out and setting: the same measure for `O=C(c1ccsc1)n1nc(C2CCOC2)nc1NCc1ccc(Cl)s1` (stereo not drawn) [Entry 61, N-[(5-chlorothiophen-2-yl)methyl]-3-(oxolan-3-yl)-1-(thiophene-3-carbonyl)-1H-1,2,4-triazol-5-amine]: at least 7.00; for `Clc1ccc(CNc2nc(C3CCOCC3)n[nH]2)s1` [Entry 58, N-[(5-chlorothiophen-2-yl)methyl]-3-(oxan-4-yl)-1H-1,2,4-triazol-5-amine]: at most 4.00; for `O=C(c1ccccc1)n1nc(C2CNC2)nc1NCc1ccc(Cl)s1` [Entry 20, 3-(azetidin-3-yl)-1-benzoyl-N-[(5-chlorothiophen-2-yl)methyl]-1H-1,2,4-triazol-5-amine]: at most 4.00.
As for `O=C(C1CCCC1)n1nc(C2CNC2)nc1NCc1ccc(Cl)s1` [Entry 23, 3-(azetidin-3-yl)-N-[(5-chlorothiophen-2-yl)methyl]-1-cyclopentanecarbonyl-1H-1,2,4-triazol-5-amine], the pIC50 against Human thrombin is at most 4.00.
The compound `Nc1nc(C2CCOCC2)n[nH]1` [Entry 24, 3-(oxan-4-yl)-1H-1,2,4-triazol-5-amine] showed a negative logarithm of the IC50 (pIC50) against Human thrombin of at most 4.00.
`O=C(c1ccoc1)n1nc(C2CCCO2)nc1NCc1ccc(Cl)s1` (stereo not drawn) [Entry 52, N-[(5-chlorothiophen-2-yl)methyl]-1-(furan-3-carbonyl)-3-(oxolan-2-yl)-1H-1,2,4-triazol-5-amine] had a pIC50 on Human thrombin of at least 7.00.
The same measure, in the same setting: to `COc1ccccc1C(=O)n1nc(C2CCN(S(=O)(=O)c3ccccc3)CC2)nc1NCc1ccc(Cl)s1` [Entry 28, 3-[1-(benzenesulfonyl)piperidin-4-yl]-N-[(5-chlorothiophen-2-yl)methyl]-1-(2-methoxybenzoyl)-1H-1,2,4-triazol-5-amine] belongs at least 7.00; to `COc1ccccc1C(=O)n1nc(C2CN(S(=O)(=O)N(C)C)C2)nc1NCc1ccc(Cl)s1` [Entry 19, 3-(5-[(5-chlorothiophen-2-yl)methyl]amino-1-(2-methoxybenzoyl)-1H-1,2,4-triazol-3-yl)-N,N-dimethylazetidine-1-sulfonamide], at least 7.00.
